From patent US20150293106A1, “DIAROMATIC AMINO ACID SUBSTRATE FOR CATHEPSIN DETECTION” (INDUSTRY-ACADEMIC COOPERATION FOUNDATION, YONSEI UNIVERSITY, priority 2012, published 2015)
“Also recorded” adds a separate entry of the source. Like-named read-outs stand apart in the source and are kept apart here. Marks after values point to notes of the source that are not given here. Where no end group is shown, it is not given here. [ ]: non-standard residue; d: D form. The star is where a group is joined. Dnp = O=[N+]([O-])c1ccc(*)c([N+](=O)[O-])c1; 2Abz = Nc1ccccc1C(=O)O

Columns and labels:
cathepsin B [1] = target: T1, cathepsin B (Homo sapiens, UniProt P07858); details: reported for other substances, cited from earlier work
cathepsin B [2] = target: T1, cathepsin B; test: Selective hydrolysis by cathepsins, fluorescence (FIG. 20); assay type: biochemical; design: cathepsins B and L derived from a human liver; purchased Sigma-Aldrich Chemical Co; host or cells: human liver
Method: (§1) The reaction was performed under alkaline conditions.
(§2) The results of experiments were illustrated in FIG. 20. Since the hydrolysis by cathepsin B was faster than the hydrolyses by papain and chymopapain, the reaction was performed with a substrate (concentration: 1.0 μM) and a protease (concentration: […]) of which the concentrations were set lower than those in Experimental Example 2 (substrate (concentration: 2.5 μM) and protease (concentration: 0.1 μM) reacted for two hours) for 30 minutes in FIG. 20. C1, C2, CB, CL, and CS represented on an X-axis respectively denote papain, chymopapain, cathepsin B, cathepsin L, and cathepsin S. Each experiment was repeated at least three times.

cathepsin L [3] = target: T2, cathepsin L (Homo sapiens, UniProt P07711); test: as above; assay type: biochemical
T2 construct: cathepsins B and L derived from a human liver; purchased Sigma-Aldrich Chemical Co; host or cells: human liver
Method: as §1, §2

papain [4] = target: T3, papain (Carica papaya, UniProt P00784); test: Degree of hydrolysis by protease (Table 3); assay type: biochemical, papaya latex; details: after 2 hours; protease 10 μM; substrate 0.2 mM (G1-G3, L1-L3) or 0.1 mM (G4, L4); hydrolysate INH
T3 construct: papain and chymopapain derived from papaya latex; purchased Sigma-Aldrich Chemical Co; host or cells: papaya latex
T3 sequence (P00784 134-345): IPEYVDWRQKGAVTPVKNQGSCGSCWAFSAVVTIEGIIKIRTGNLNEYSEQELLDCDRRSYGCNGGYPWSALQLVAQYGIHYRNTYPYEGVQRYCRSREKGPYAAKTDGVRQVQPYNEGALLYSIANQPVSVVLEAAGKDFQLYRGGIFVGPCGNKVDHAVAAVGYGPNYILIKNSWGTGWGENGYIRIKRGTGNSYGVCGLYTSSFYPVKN
Method: (§3) A hydrolysate was measured using a HPLC system.

cathepsin B [5] = target: T1, cathepsin B; test: Michaelis-Menten kinetics of hydrolysis by cysteine protease (Table 4); assay type: biochemical; design: cathepsins B and L derived from a human liver; purchased Sigma-Aldrich Chemical Co; host or cells: human liver; details: average and standard deviation, at least 3 experiments
Method: as §1

thermolysin = thermolysin (Bacillus thermoproteolyticus, UniProt P00800); details: after 2 hours; protease 10 μM; substrate 0.2 mM (G1-G3, L1-L3) or 0.1 mM (G4, L4); n.d. = no hydrolysis was detected; hydrolysate INH
Method: For the meaningful comparison of proteases, a hydrolysis reaction was performed under the optimum conditions as reported in other documents (regarding chymotrypsin, subtilisin, thermolysin and pepsin, refer to R. Beynon, J. S. Bond, Proteolytic Enzymes (Second Edition), Oxford University Press, 2001, pp. 295-316; regarding trypsin, proteinase K, carboxy peptidase A, collagenase, dispase, aspergillopepsin, papain, chymopapain, bromelain, cathepsin B, cathepsin L, and cathepsin S, refer to the catalog of Sigma-Aldrich Corporation).
Before the reaction, the mixtures of the reaction buffer solutions and proteases were previously incubated for 30 minutes in a water bath in which the temperature was adjusted to an analysis temperature. The hydrolysis reaction was initiated by adding a substrate dissolved in DMSO. The volume of the added substrate solution was controlled such that the final concentration of DMSO was lower than 1.5% (v/v).
A hydrolysate was measured using a HPLC system. In order to prepare a sample, a hydrolysis reaction was terminated by adding 2% (v/v) 1M HCl with respect to a serine protease, cysteine protease and metalloprotease, and adding 1M NaOH with respect to an aspartic protease. The separation was performed using the mixture of 10 mM-ammonium bicarbonate and acetonitrile as an eluent in C-18 column (particle size: 5 μm, 250 mm×4.6 mm, pore size: 80 Å, Phenomenex, USA). The elution was performed for 15 minutes, while the linear gradient of acetonitrile was increased from 0 to 60%. The flow rate and separation temperature of the eluent were maintained at 1 mL min^−1 and 35° C. The hydrolysate was detected at a wavelength of 254 nm.
Based on the report that a hydrophobic amino acid such as phenylalanine was preferred at a P2 position in most of the papain-like cysteine proteases, Boc-aromatic amino acid-Gly-INH and Boc-aromatic amino acid-Lys-INH were prepared in particular, and experimented as a substrate with respect to chymotrypsin, trypsin, papain, pepsin and thermolysis.

chymopapain = target: T4, chymopapain (Carica papaya, UniProt P14080); test: Michaelis-Menten kinetics of hydrolysis by cysteine protease (Table 4); assay type: biochemical, papaya latex; details: average and standard deviation, at least 3 experiments
T4 construct: papain and chymopapain derived from papaya latex; purchased Sigma-Aldrich Chemical Co; host or cells: papaya latex
Method: as §1

papain [6] = target: T3, papain; test: as above; assay type: biochemical, papaya latex; details: average and standard deviation, at least 3 experiments
Method: as §1

cathepsin S = target: T5, cathepsin S (Homo sapiens, UniProt P25774); test: Selective hydrolysis by cathepsins, fluorescence (FIG. 20); assay type: biochemical; details: substrate 1.0 μM, protease 10 mM, 30 minutes
T5 construct: cathepsin S derived from a human spleen; purchased Sigma-Aldrich Chemical Co; host or cells: human spleen
Method: as §1, §2

[7] = test system: other proteases (non-cysteine proteases of the 13-protease panel); test: Protease-catalyzed hydrolysis, restored DBDY fluorescence (selectivity, FIGS. 11-19); assay type: biochemical; details: substrate 2.5 μM, protease 0.1 μM, two hours
Method: as §1
(§4) The hydrolysis reaction was performed for two hours. […] Each experiment was repeated at least three times.

[8] = test system: cysteine protease (papain, chymopapain, bromelain); test: as above; assay type: biochemical, papaya latex; pineapple stem; details: substrate 2.5 μM, protease 0.1 μM, two hours
Method: as §1, §4

cathepsin L [9] = target: T2, cathepsin L; test: Michaelis-Menten kinetics of hydrolysis by cysteine protease (Table 4); assay type: biochemical; details: average and standard deviation, at least 3 experiments
Method: as §1

pepsin = target: T6, pepsin (Sus scrofa, UniProt P00791); test: Degree of hydrolysis by protease (Table 3); assay type: biochemical, pig; details: after 2 hours; protease 10 μM; substrate 0.2 mM (G1-G3, L1-L3) or 0.1 mM (G4, L4); n.d. = no hydrolysis was detected; hydrolysate INH
T6 construct: pepsin derived from pig gastric mucosa; purchased Sigma-Aldrich Chemical Co; host or cells: pig gastric mucosa
Method: as §3

chymotrypsin = target: T7, chymotrypsin (Bos taurus, UniProt P00766); test: Degree of hydrolysis by protease (Table 3); assay type: biochemical, bovine; details: after 2 hours, protease 10 μM, substrate 0.2 mM (G1-G3, L1-L3) or 0.1 mM (G4, L4), n.d. = no hydrolysis was detected, hydrolysate Gly-INH (G), Lys-INH (L1-L3)
T7 construct: chymotrypsin and trypsin derived from fetal bovine pancreas; purchased Sigma-Aldrich Chemical Co; host or cells: bovine pancreas
Method: as §3

trypsin [10] = target: T8, trypsin (Bos taurus, UniProt P00760); test: Protease-catalyzed hydrolysis, restored DBDY fluorescence (selectivity, FIGS. 11-19); assay type: biochemical, bovine; details: substrate 2.5 μM, protease 0.1 μM, two hours
T8 construct: chymotrypsin and trypsin derived from fetal bovine pancreas; purchased Sigma-Aldrich Chemical Co; host or cells: bovine pancreas
T8 sequence (P00760 24-246): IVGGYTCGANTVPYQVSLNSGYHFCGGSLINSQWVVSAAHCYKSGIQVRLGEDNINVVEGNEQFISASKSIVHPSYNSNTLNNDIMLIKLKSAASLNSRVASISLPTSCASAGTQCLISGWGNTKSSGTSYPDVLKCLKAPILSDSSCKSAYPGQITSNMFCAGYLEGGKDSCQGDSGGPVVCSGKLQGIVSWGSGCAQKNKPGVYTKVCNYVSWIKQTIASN
Method: as §1, §4

trypsin [11] = target: T8, trypsin; test: Degree of hydrolysis by protease (Table 3); assay type: biochemical, bovine; details: after 2 hours; protease 10 μM; substrate 0.2 mM (G1-G3, L1-L3) or 0.1 mM (G4, L4); n.d. = no hydrolysis was detected; hydrolysate INH
Method: as §3

[12] = inventors' earlier research on DBDY-(INH)2, conditions not given
[13] = substrate 1.0 μM, protease 10 mM, 30 minutes

T4 sequence (P14080 135-352): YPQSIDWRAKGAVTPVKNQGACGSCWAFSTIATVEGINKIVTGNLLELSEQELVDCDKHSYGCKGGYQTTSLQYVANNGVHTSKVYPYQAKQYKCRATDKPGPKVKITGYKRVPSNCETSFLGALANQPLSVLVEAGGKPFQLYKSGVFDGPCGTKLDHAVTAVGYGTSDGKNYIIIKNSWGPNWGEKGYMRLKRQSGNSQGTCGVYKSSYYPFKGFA
T2 sequence (P07711 114-333): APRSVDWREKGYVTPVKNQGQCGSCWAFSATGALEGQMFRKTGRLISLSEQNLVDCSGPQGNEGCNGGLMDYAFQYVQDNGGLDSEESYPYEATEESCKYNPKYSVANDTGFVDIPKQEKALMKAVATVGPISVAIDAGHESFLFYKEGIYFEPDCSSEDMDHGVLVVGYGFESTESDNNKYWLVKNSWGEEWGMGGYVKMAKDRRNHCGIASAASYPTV
T6 sequence (P00791 60-385): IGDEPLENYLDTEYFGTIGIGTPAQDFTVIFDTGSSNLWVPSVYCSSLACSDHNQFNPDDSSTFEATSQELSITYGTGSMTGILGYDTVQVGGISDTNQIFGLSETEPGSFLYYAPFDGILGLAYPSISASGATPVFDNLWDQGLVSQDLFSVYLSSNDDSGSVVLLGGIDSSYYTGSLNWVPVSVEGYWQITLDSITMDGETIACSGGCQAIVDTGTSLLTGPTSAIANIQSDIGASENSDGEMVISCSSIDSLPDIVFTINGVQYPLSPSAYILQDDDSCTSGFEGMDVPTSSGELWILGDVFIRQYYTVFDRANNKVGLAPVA
T5 sequence (P25774 115-331): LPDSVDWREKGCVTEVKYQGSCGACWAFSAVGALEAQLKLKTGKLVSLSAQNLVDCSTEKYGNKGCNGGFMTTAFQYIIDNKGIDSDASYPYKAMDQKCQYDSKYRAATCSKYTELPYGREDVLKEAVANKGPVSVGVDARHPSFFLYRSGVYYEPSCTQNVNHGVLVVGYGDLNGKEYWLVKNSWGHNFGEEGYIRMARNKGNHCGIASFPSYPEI
thermolysin, sequence (P00800 233-548): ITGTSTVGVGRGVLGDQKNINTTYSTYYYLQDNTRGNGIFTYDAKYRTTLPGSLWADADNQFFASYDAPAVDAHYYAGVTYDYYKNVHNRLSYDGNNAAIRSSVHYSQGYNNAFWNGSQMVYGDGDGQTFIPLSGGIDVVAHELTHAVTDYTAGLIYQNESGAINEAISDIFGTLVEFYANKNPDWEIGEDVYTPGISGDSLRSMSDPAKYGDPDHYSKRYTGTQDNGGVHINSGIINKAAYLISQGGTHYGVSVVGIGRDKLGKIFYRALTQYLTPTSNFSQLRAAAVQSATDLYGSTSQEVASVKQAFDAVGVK

Row | Compound | Km (cathepsin B [1]) | degree of hydrolysis by Papain (papain [4]) | Kcat (cathepsin B [5]) | Km (cathepsin B [5]) | Kcat (chymopapain) | Km (chymopapain) | Kcat (papain [6]) | Km (papain [6]) | hydrolysis by cathepsin B (cathepsin B [2]; [13]) | hydrolysis by cathepsin S (cathepsin S) | hydrolysis by cathepsin L (cathepsin L [3]; [13]) | hydrolysis by cysteine proteases (increased fluorescence) [8] | Kcat (cathepsin L [9]) | Km (cathepsin L [9]) | degree of hydrolysis by Pepsin (pepsin) | degree of hydrolysis by Chymotrypsin (chymotrypsin) | other results
1 | Abz-Phe-Phe-Dap(Dnp)-Trp-OH | 2100 nM | – | – | – | – | – | – | – | – | – | – | – | – | – | – | – | –
2 | CC(C)(C)OC(=O)NC(Cc1ccc(O)c(-c2cc(CC(NC(=O)OC(C)(C)C)C(=O)NNC(=O)c3ccncc3)ccc2O)c1)C(=O)NNC(=O)c1ccncc1 (stereo not shown) [DBDY-(INH)2, reference compound] | – | – | – | – | – | – | – | – | – | – | – | – | – | – | – | – | hydrolysis by cathepsin B (cathepsin B [2]; [12]): not hydrolyzed; hydrolysis by cathepsin L (cathepsin L [3]; [12]): not hydrolyzed
3 | Abz-Gly-Ile-Val-Arg-Ala-Lys(Dnp)-OH ([2Abz]GIVRAK(Dnp)-OH) | – | – | – | – | – | – | – | – | – | – | – | – | – | – | – | – | Km (cathepsin B [1]; unit inferred): 5900 nM
4 | CC(C)(C)OC(=O)NC(Cc1ccc(O)c(-c2cc(CC(NC(=O)OC(C)(C)C)C(=O)NCC(=O)NNC(=O)c3ccncc3)ccc2O)c1)C(=O)NCC(=O)NNC(=O)c1ccncc1 (stereo not shown) [Substrate G4, DBDY-(Gly-INH)2] | – | 62.2 ± 2.1% | 0.67 ± 0.06 min⁻¹ | 2880 nM | 0.34 ± 0.03 min⁻¹ | 4 ± 0.25 µM | 1.54 ± 0.30 min⁻¹ | 7.72 ± 1.25 µM | hydrolyzed only by cathepsin B | not hydrolyzed | hydrolyzed only by cathepsin B | showed sensitivity and selectivity for the cysteine protease; also recorded: selectivity for cysteine proteases | 0.09 ± 0.02 min⁻¹ | 12.9 ± 3.69 µM | 2.98 ± 0.07% | hardly hydrolyzed | degree of hydrolysis by Thermolysin (thermolysin): 0.74 ± 0.03%; hydrolysis by other (non-cysteine) proteases [7]: no hydrolysis by other proteases
5 | Abz-Phe-Arg-Dap(Dnp)-Trp-OH | 3000 nM | – | – | – | – | – | – | – | – | – | – | – | – | – | – | – | –
6 | CC(C)(C)OC(=O)NC(Cc1ccc(O)c(-c2cc(CC(NC(=O)OC(C)(C)C)C(=O)NC(CCCCN)C(=O)NNC(=O)c3ccncc3)ccc2O)c1)C(=O)NC(CCCCN)C(=O)NNC(=O)c1ccncc1 (stereo not shown) [Substrate L4, DBDY-(Lys-INH)2] | – | 44.9 ± 2.8% | 2.17 ± 0.15 min⁻¹ | 2010 ± 50 nM | 0.03 ± 0.01 min⁻¹ | 2.2 ± 0.28 µM | 1.04 ± 0.11 min⁻¹ | 7.2 ± 0.8 µM | hydrolyzed | not hydrolyzed | hydrolyzed | hydrolyzed; also recorded: selectivity for cysteine proteases | 0.20 ± 0.01 min⁻¹ | 1.17 ± 0.09 µM | 1.04 ± 0.03% | 7.15 ± 0.47 ^c % | hydrolysis by trypsin (increased fluorescence) (trypsin [10]): hydrolyzed; also recorded: slightly hydrolyzed; degree of hydrolysis by Chymotrypsin (chymotrypsin; listed as DBDY-(Lys-INH)2): hardly hydrolyzed; degree of hydrolysis by Trypsin (trypsin [11]): 46.8 ± 1.7%
